Assay results as given in US7312248B2, “Control of parasites in animals by the use of novel trifluoromethanesulfonanilide oxime ether derivatives” (Schering-Plough Animal Health Corporation, priority 2004, dated 2007).
Where two headings read alike, the source gives them in different places.

Test system: cat flea (Ctenocephalides felis)
Experiment: whole plant or invertebrate
Assay type: in vivo
Conditions: Ctenocephalides felis, Laboratory 1 A data
Outline: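 Adult C. felis (3-7 days post-emergence; 15 per flask, at least 4 replicates) exposed to a glass flask base dried 24 h after coating with compound in acetone at 1.26 μg/cm^2. Held at 25±1 °C, 75±5% humidity; mortality (immobile or unable to right) scored at 8, 24 and/or 48 h as percentage.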

[1] = 8 h, read-out: C. felis Mortality (%) 8 h, 8 h
[2] = 24 h, read-out: C. felis Mortality (%) 24 h, 24 h

SMILES: CC/C(=N\OCc1ccc(C(F)(F)F)cc1)c1cc(Cl)ccc1NS(=O)(=O)C(F)(F)F [Compound 9]
- mortality at 1.26 µg/cm2, 1.26 µg/cm2 [1]: 86%
- mortality at 1.26 µg/cm2, 1.26 µg/cm2 [2]: 98%

SMILES: CC/C(=N\OCc1ccc(Cl)cc1)c1cc(Cl)ccc1NS(=O)(=O)C(F)(F)F [Compound 11, N-{4-chloro-2-[1-(4-chlorobenzyloxyimino)propyl]phenyl}trifluoromethanesulfonamide]
- mortality at 1.26 µg/cm2, 1.26 µg/cm2 [1]: 87%
- mortality at 1.26 µg/cm2, 1.26 µg/cm2 [2]: 100%
